Where no end group is shown, it is not given here. [ ]: non-standard residue; d: D form. Aib = CC(C)(N)C(=O)O; Ahx = NCCCCCC(=O)O

In the assay the test system is HeLa cell (Human cervix adenocarcinoma cell). Put plainly: Cell membrane penetrating performance evaluation (flow cytometry of fluorescein-labelled peptide conjugates). Format: cell-based. The note with it: 2 μM peptide conjugate, 37° C., 2 hours, ratio to Comparative example 2 = (Fn−F1)/(F2−F1), mode values, flow cytometer. How it is done: Test example 1: Cell Membrane Penetrating Performance Evaluation
HeLa cell (Human cervix adenocarcinoma cell) was cultivated in a culture fluid containing 2 μM of the peptide conjugate of Examples 1 to 9 or Comparative examples 1 to 6 at 37° C. for 2 hours. Then, the cell was collected and stained with a propidium iodide solution to measure a fluorescence intensity using a flow cytometer, and a fluorescence intensity ratio to Comparative example 2 was calculated in accordance with the following formula.
Fluorescence intensity ratio=(Fn−F1)/(F2−F1)
Fn: Fluorescence intensity mode value of tested compound
F1: Fluorescence intensity mode value of tested compound of Comparative example 1
F2: Fluorescence intensity mode value of tested compound of Comparative example 2

Take “F-Ahx-(cargo peptide)-(Arg)9-(Gly)3-(Leu-Leu-Aib)-NH2 (F[Ahx]CGGSGGSCRRRRRRRRRGGGLL[Aib]-NH2; not fully specified (bridges); cysteine pairing not given here) [Example 8]”: the Fluorescence intensity ratio worked out at 2.74.
Take “F-Ahx-(cargo peptide)-(Leu-Leu-Ala)-(Gly)3-(Arg)9-NH2 (F[Ahx]CGGSGGSCLLAGGGRRRRRRRRR-NH2; not fully specified (bridges); cysteine pairing not given here) [Example 9]”: the Fluorescence intensity ratio came to 3.34.
